Assay results: patent publication US5512549A, “Glucagon-like insulinotropic peptide analogs, compositions, and methods of use” (Eli Lilly and Company, priority 1994, dated 1996)

Experiments:
[1] = tested on: beagles; assay: Dog S.C. Hyperglycemic (150 mg/dl) Clamp Test; type: in vivo; conditions: S.C. 10 μg/kg
Experimental: (§1) a) Hyperglycemic Clamp Studies
(§2) Experiments were conducted in overnight-fasted, conscious, adult (1-2 years of age) male and female beagles weighing 8-15 kg. At least ten days prior to the study, animals were anesthetized with isoflurane, and a cut-down was made in the left or right inguinal region. Silastic catheters were inserted into the femoral artery and the proximal caudal femoral vein and secured with 4-0 silk suture. The free ends of the catheters were passed subcutaneously to the back using a trocar needle. The catheters were then filled with a glycerol/heparin solution (3:1, v/v; final heparin concentration of 250 KIU/ml), and the free ends were knotted and placed in a subcutaneous pocket to allow complete closure of the skin. Keflex® was administered both pre-operatively (20 mg/kg, IV and 20 mg/kg, I.M.) and post-operatively (250 mg, p.o. once daily for seven days) to prevent infections. Torbugesic (1.5 mg/kg, I.M.) was administered post-operativelyto control pain.
(§3) Blood was drawn just prior to the study day to determine the health of the animal. Only animals with hematocrits above 38% and leukocyte counts below 16,000/mm^3 were used.
(§4) The afternoon before the experiment, the free ends of the catheters were exteriorized from the subcutaneous pocket through a small incision made under local anesthesia (2% lidocaine), and the dog was fitted with a tether system jacket and collar assembly.
(§5) The morning of the experiment, the contents of the catheters were aspirated, the catheters were flushed with saline, and extension lines (protected by a stainless steel tether) were attached to the catheters. On mornings of IV injection experiments, an over-the-needle, teflon catheter was inserted percutaneously into a cephalic vein in preparation for the administration of an IV bolus of test substance. The dog was placed in a metabolic cage, and the catheter extension lines and tether were attached to a swivel system to allow the dog to move freely about the cage. At this time (-60 minutes), an exogenous infusion of glucose (50% w/v in water) was begun through the chronic venous catheter. Glucose was infused in a descending stepwise fashion over the first six minutes of the study to rapidly raise the plasma glucose concentration to 150 mg/dl. Plasma glucose concentrations were determined every 2.5 to 7.5 minutes throughout the remainder of the study, and the glucose infusion rate was adjusted appropriately to maintain the plasma glucose concentration at 150 mg/dl.
(§6) Sixty minutes after the start of the glucose infusion (time 0), test substance was administered either intravenously (1.0, 2.9, 5.0 or 10.0 μg/kg; dose dissolved in 2 ml of saline containing 0.3% dog albumin, w/v) through the previously inserted teflon catheter or subcutaneously (10 μg/kg; 150 μM in phosphate buffered saline) in the dorsal aspect of the neck.
(§7) Arterial blood samples (3.5 ml) were taken at -30, -15, 0, 2.5, 5, 7.5, 10, 12.5, 15, 20, 30, 45, 60, 75, 90, 105 and 120 minutes during the IV studies and at -30, -15, 0, 3, 6, 9, 12, 15, 20, 30, 45, 60, 75, 90, 105 and 120 minutes during the SC studies. Samples were collected in vacuum blood collection tubes containing disodium EDTA and immediately placed on ice. To prevent proteolytic cleavage of GLP-1(7-37) in the plasma samples, 1.5 ml of the EDTA containing blood were transferred to a polypropylene tube containing 40 μl of aprotinin (10,000 KIU/ml) and mixed well. The samples were centrifuged, and the resulting plasma was transferred to polypropylene test tubes and stored on ice for the duration of the study.
(§8) At the conclusion of the experiment, the animal was anesthetized (isoflurane); the catheters were flushed with fresh saline and filled with the glycerol/heparin mixture; the free ends of the catheters were knotted and placed subcutaneously as described earlier; and antibiotic was administered (300 mg Keflex®, I.M.). […]

[2] = target: T1, rat GLP-1 receptor (Rattus norvegicus, UniProt P32301); assay: cAMP Assay (in vitro receptor binding assay) on membrane preparation; type: biochemical; conditions: cAMP production, CHO membranes expressing rat GLP-1 receptor; mean ± spread
T1 construct: expressed in transfected cells; host or cells: CHO DXB-11 (Chinese hamster ovary) cells, used as a membrane preparation
T1 sequence (P32301 22-463): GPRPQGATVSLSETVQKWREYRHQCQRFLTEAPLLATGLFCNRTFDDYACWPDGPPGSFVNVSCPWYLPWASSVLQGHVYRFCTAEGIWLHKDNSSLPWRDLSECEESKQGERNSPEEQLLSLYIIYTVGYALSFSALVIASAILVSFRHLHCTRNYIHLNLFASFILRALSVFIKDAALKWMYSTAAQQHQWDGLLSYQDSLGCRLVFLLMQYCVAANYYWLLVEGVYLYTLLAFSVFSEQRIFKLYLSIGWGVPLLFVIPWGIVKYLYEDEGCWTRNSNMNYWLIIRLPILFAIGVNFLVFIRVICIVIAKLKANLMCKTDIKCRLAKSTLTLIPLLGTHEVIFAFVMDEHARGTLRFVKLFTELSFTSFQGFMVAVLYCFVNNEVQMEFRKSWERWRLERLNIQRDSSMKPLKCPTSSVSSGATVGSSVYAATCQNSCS
Experimental: A sample of the membrane preparation was preincubated with a test compound or a control compound in buffer (25 mM HEPES, 0.2% (w/v) BSA, pH 7.6) at 32° C. for 10 minutes. Reaction buffer (final concentration: 25 mM HEPES, 0.2% (w/v) BSA, 2.6 mM Mg, 0.8 mMATP, 0.1 mM GTP, 5 mM creatine phosphate, creatine kinase 50 U/ml, 0.2 mM IBMX, pH 7.6) was added and incubated for an additional 30 minutes. Incubations were stopped by adding 10 mM EDTA.
Production of cAMP was assayed using a fluorescent tracer-immuno assay method. In brief, after the incubation was stopped, fluorescent tracer (cAMP-b phycoerythrin conjugate) was added followed by the addition of affinity purified anti-cAMP rabbit antiserum. After incubation at room temperature for 45 minutes, anti-rabbit IgG coated assay beads were added and incubated for an additional 15 minutes. Plates were then evacuated and read on a Pandex PFCIA reader.
Fluorescent intensity values were correlated to rate of cAMP production (pmol/min/mg).

[3] = tested on: Sprague Dawley or Zucker Diabetic Fatty rats; assay: Rat IV Glucose (1 g/kg) Tolerance Test; type: in vivo; conditions: for Insulin Change AUC: 0-15 min
Experimental: a) Glucose Tolerance Tests
Experiments were conducted in overnight-fasted, conscious, male Sprague Dawley (Charles River) or Zucker Diabetic Fatty (Genetic Models, Inc.) rats weighing approximately 250 (Sprague Dawley rats) or 300 (Zucker Diabetic Fatty rats) grams. Four to five days prior the study, rats were anesthetized with isoflurane, and a polyethylene (PE50) catheter was inserted into the right jugular vein. The catheter was secured with a wound clip, filled with saline containing heparin (2% sodium heparin), and closed with a small stainless steel plug.
After a sixteen-hour fast, twelve chronically cannulated rats were separated into four groups of three rats per group. 0.4 ml of blood was taken from the tail vein, collected into a microtainer tube containing lithium heparin, and immediately placed on ice (zero minute sample). A glucose bolus (1.0 g/kg; 50% glucose (w/v) in water) was administered via the indwelling jugular cannula, and the cannula was rinsed with 200 μl of saline. Twenty seconds later a bolus of test substance 100 μl/100 g body weight of either vehicle (saline containing 0.3% (w/v) bovine serum albumin) or vehicle containing analog! was administered through the jugular cannula, and the cannula was rinsed as before. Rats were bled from the tail again at 2, 5, 10, 20 and 30 minutes after the administration of the glucose bolus, and the samples were treated as described above. At the end of the experiment, blood samples were centrifuged, and the plasma was collected.
Plasma glucose concentrations were determined the day of the experiment using a coupled hexokinase procedure in a clinical chemistry analyzer. Plasma for insulin determinations were diluted with zero calibrator and frozen at -20° C. until time for analysis. Insulin concentrations were determined using a commercial radioimmunoassay kit with rat insulin as the standard.
Insulin change (the change in insulin from the baseline value) was calculated as the difference between the insulin concentration at time t and the insulin concentration at zero time. The area under the insulin change curve was calculated using the trapezoidal rule. Plasma glucose change (the increase in plasma glucose above the baseline value) was calculated as the difference between the plasma glucose concentration at time t and the plasma glucose concentration at zero time. The area under the plasma glucose change curve was calculated using the trapezoidal rule. Values are listed as the mean ± the standard error of the mean (SEM).

[4] = tested on: beagles; assay: Dog I.V. Hyperglycemic (150 mg/dl) Clamp Test; type: in vivo; conditions: I.V. 1.0 μg/kg
Experimental: as §1, §2, §3, §4, §5, §6, §7, §8

[5] = 120 minute test period, mean ± SEM

Arg^26 -Lys^34 -N^ε -octanoyl-GLP-1(8-37)OH [Arg^26-Lys^34-N^ε-octanoyl-GLP-1(8-37)OH]
GIR Change AUC ([1]; 0-120 min, mean ± SEM): 659 ± 182 mg/kg
Insulin Change AUC ([1]; 0-120 min, mean ± SEM): 11 ± 26 ng·min/mL
Max Insulin Change [1, 5]: 0.6 ± 0.4 ng/mL
Duration of Insulin Effect ([1]; time average insulin change consistently >0.5 ng/ml): not active

N- Imidazole-α,α-dimethyl-acetyl!GLP-1 (8-37)OH [α,α-imidazoacetyl-GLP-1(8-37)OH]
% Relative Potency [2]: 108.2 ± 22.4%

GLP-1(7-36)NH2
Insulin Change at 10 min ([3]; IV dose 0.2 mg/kg): 1.8 ng/mL
Max Insulin Change ([3]; IV dose 0.2 mg/kg): 4.0 ng/mL
Insulin Change AUC ([3]; IV dose 0.2 mg/kg): 34 ± 4 ng·min/mL
Insulin Change at 10 min ([3]; IV dose 0.3 mg/kg): 2.2 ng/mL
Max Insulin Change ([3]; IV dose 0.3 mg/kg): 6.1 ng/mL
Insulin Change AUC ([3]; IV dose 0.3 mg/kg): 50 ± 13 ng·min/mL
Insulin Change at 10 min ([3]; IV dose 0.4 mg/kg): 3.8 ng/mL
Max Insulin Change ([3]; IV dose 0.4 mg/kg): 7.7 ng/mL
Insulin Change AUC ([3]; IV dose 0.4 mg/kg): 73 ± 14 ng·min/mL
Insulin Change at 10 min ([3]; IV dose 0.6 mg/kg): 3.4 ng/mL
Max Insulin Change ([3]; IV dose 0.6 mg/kg): 7.7 ng/mL
Insulin Change AUC ([3]; IV dose 0.6 mg/kg): 67 ± 11 ng·min/mL
Insulin Change at 10 min ([3]; IV dose 0.8 mg/kg): 4.1 ng/mL
Max Insulin Change ([3]; IV dose 0.8 mg/kg): 11.3 ng/mL
Insulin Change AUC ([3]; IV dose 0.8 mg/kg): 97 ± 25 ng·min/mL
Insulin Change at 10 min ([3]; IV dose 1.0 mg/kg): 3.9 ng/mL
Max Insulin Change ([3]; IV dose 1.0 mg/kg): 11.4 ng/mL
Insulin Change AUC ([3]; IV dose 1.0 mg/kg): 89 ± 16 ng·min/mL
Insulin Change at 10 min ([3]; IV dose 2.0 mg/kg): 4.9 ng/mL
Max Insulin Change ([3]; IV dose 2.0 mg/kg): 11.7 ng/mL
GIR Change AUC ([4]; 0-60 min, mean ± SEM): 414 ± 73 mg/kg
Insulin Change AUC ([4]; 0-60 min, mean ± SEM): 32 ± 8 ng·min/mL
Max Insulin Change [4, 5]: 3.4 ± 0.6 ng/mL
Duration of Insulin Effect ([4]; time average insulin change consistently ≥0.5 ng/ml): 2.5 min
